# Test results published in patent US20260374818A1, “CATIONIC PEPTIDES WITH BROAD SPECTRUM ACTIVITY” (priority 2023, published 2026).
# Where a SMILES comes first, the peptide text is derived from it. [ ]: non-standard residue; d: D form.
# What was measured:
# [1] = tested on: P. aeruginosa PAO1 biofilms; assay: Biofilm inhibition by SPOT-synthesized AB103-D variants (crystal violet), P. aeruginosa; format: cell-based, Pseudomonas aeruginosa; details: P. aeruginosa PAO1, SPOT peptides
# MRSA USA300 biofilms = assay: Biofilm inhibition by >95% pure peptides (crystal violet), MRSA; format: cell-based, methicillin resistant Staphylococcus aureus; details: MRSA USA300 biofilms, >95% pure peptides, 10% TSB + 0.1% glucose
# P. aeruginosa PAO1 = assay: MIC (broth microdilution) of peptides, P. aeruginosa; format: cell-based, Pseudomonas aeruginosa; details: mode of three biological replicates
# Protocol: (§1) Minimal inhibitory concentration (MIC) against planktonic bacteria: The MIC of the synthetic peptides was determined in Mueller-Hinton broth (MHB) using the broth microdilution method described previously [Wiegand, I., Hilpert, K., & Hancock, R. E. (2008). Agar and broth dilution methods to determine the minimal inhibitory concentration (MIC) of antimicrobial substances. Nature Protocols, 3(2), 163-175]. Briefly, 10 μl of a 10× concentrated peptide solution was placed in the bottom of a well in a 96-well polypropylene round bottom plate (Corning Inc.). A bacterial suspension of ~5×10^5 CFU/ml was prepared from an overnight culture and 90 μl of this was added to each well. […] Bacteria tested included P. aeruginosa PAO1, MRSA USA300 LAC, Staphylococcus haemolyticus, Staphylococcus epidermidis, Klebsiella pneumoniae and Streptococcus salivarius.
# (§2) Finally, the AB103-D derivatives that were the least aggregation prone and which produced the lowest toxic effects in vivo were evaluated for their direct antibacterial activity towards several pathogens of clinical relevance using a standard minimum inhibitory concentration (MIC) assay [Wiegand, I., Hilpert, K., & Hancock, R. E. (2008). Agar and broth dilution methods to determine the minimal inhibitory concentration (MIC) of antimicrobial substances. Nature Protocols, 3(2), 163-175]. Specifically, peptides AB110-D, AB111-D, AB114-D and AB115-D were tested against P. aeruginosa PAO1, MRSA USA 300, Staphylococcus haemolyticus, Staphylococcus epidermidis, Klebsiella pneumoniae and Streptococcus salivarius and compared against the antibacterial activity of DJK-5 and AB103-D (Table 7). Overall, the antibacterial potency of all of the AB103-D derivatives was stronger than that seen for DJK-5, particularly in the case of the Gram-negative pathogens P. aeruginosa and K. pneumoniae. […]
# MRSA USA 300 = assay: MIC (broth microdilution) of peptides, MRSA; format: cell-based, methicillin resistant Staphylococcus aureus; details: MRSA USA300; mode of three biological replicates
# Protocol: as §1, §2
# [2] = tested on: Staphylococcus haemolyticus; assay: MIC (broth microdilution) of peptides, S. haemolyticus; format: cell-based; details: mode of three biological replicates
# Protocol: as §1, §2
# [3] = tested on: Staphylococcus epidermidis; assay: MIC (broth microdilution) of peptides, S. epidermidis; format: cell-based; details: mode of three biological replicates
# Protocol: as §1, §2
# Klebsiella pneumoniae = assay: MIC (broth microdilution) of peptides, K. pneumoniae; format: cell-based; details: mode of three biological replicates
# Protocol: as §1, §2
# Streptococcus salivarius = assay: MIC (broth microdilution) of peptides, S. salivarius; format: cell-based; details: mode of three biological replicates
# Protocol: as §1, §2
# [4] = Subdermal murine toxicity model; details: for Clinical score: 1 hour after subcutaneous administration, comparator DJK-5; for Average cyst size compared to DJK-5: 16 hours after administration, 4 mg/kg
# Protocol: FIGS. 14A-14B show murine subdermal toxicity assessment of AB103-D derived peptides. Clinical scores were recorded for each peptide treated mouse one hour after peptide administration (FIG. 14A). […] The presence of a cyst or lesion was recorded 16 hours after peptide administration and the size of the cyst was measured using calipers (FIG. 14B). Data shown are the mean of two independent replicates at a peptide dose of 4 mg/kg.
# Subdermal murine toxicity model: A subdermal toxicity mouse model was used to evaluate whether peptides induced localized toxicity of treated cutaneous tissue. Mice were anesthetized with 2.5-3% isoflurane and their fur was removed by shaving followed by application of a chemical depilatory. […] Mice were visually assessed and received clinical scores for a battery of signs or symptoms (activity/behaviour change, appearance/grooming, hydration, pain, cyst formation), for which a score of zero was given to animals that appeared normal. Animals were weighed and clinical scores were totalled. Following an overnight (16 h) incubation, mice were scored and weighed then euthanized with CO2 followed by cervical dislocation. Mice were imaged and cysts (swollen, inflamed tissue) were measured using a caliper. Animal experiments were performed in accordance with the Canadian Council on Animal Care (CCAC) guidelines and were approved by the University of British Columbia Animal Care Committee. Female CD-1 mice were purchased from Charles River Laboratories, Inc. (Wilmington, MA). All mice were 8 weeks of age and weighed 25±5 g at the time of the experiment. Animals were group housed in cohorts of three to four littermates. Standard animal husbandry practices were employed.
# [5] = tested on: MRSA USA300 planktonic cells; assay: Planktonic growth inhibition by pure AB103-D derivatives, MRSA; format: cell-based, methicillin resistant Staphylococcus aureus
# Protocol: (§3) The effect of peptide on bacterial and biofilm growth was assessed using the biofilm inhibition assay [Haney, E. F., Trimble, M. J., & Hancock, R. E. W. (2021) FIGS. 20A-20D. Microtiter plate assays to assess antibiofilm activity against bacteria. Nature Protocols, 16(5), 2615-2632]. The effect of peptide on planktonic growth and biofilm growth of MRSA USA300 (FIG. 20A, FIG. 20C) and P. aeruginosa PAO1 (FIGS. 20B, 20D) was assessed and compared to the activity seen for AB103-D (gray stars) and DJK5 (gray open circles). Data shown are the average of three biological replicates. Error bars have been omitted for clarity. […]. The results indicated enhanced antibiofilm and antibacterial activity of AB103-D derivatives compared to DJK5.
# [6] = tested on: P. aeruginosa PAO1 biofilms; details: for minimum inhibitory concentration of peptide that inhibited at least 90% of biofilm growth (MBIC90): P. aeruginosa PAO1 biofilms, >95% pure peptides, crystal violet, BM2 minimal media
# [7] = tested on: MRSA biofilms (USA300 LAC); details: MRSA biofilms, SPOT peptides
# red blood cells = assay: Hemolysis; format: cell-based, human; details: 4 hours
# Protocol: Hemolysis: Peptide induced hemolysis was evaluated according to methods described previously [Hilchie, A. L., et al. (2016). Mastoparan is a membranolytic anti-cancer peptide that works synergistically with gemcitabine in a mouse model of mammary carcinoma. Biochimica Et Biophysica Acta, 1858(12), 3195-3204]. Briefly, red blood cells were obtained, with human ethics approval, from the blood of healthy volunteers collected in a sodium heparin tube and then rinsed three times in PBS, centrifuging between washes, to obtain the hematocrit (100% RBC). A 2.5% RBCs suspension was exposed to peptide at varying concentrations and incubated at 37 C in a 5% CO2 humidified atmosphere for 4 hours. Supernatants were collected following centrifugation (1100 rpm) and transferred to a flat bottom microtitre plate. The absorbance (490 nm) of each supernatant was measured on a BioTek Epoch Microplate Spectrophotometer. Percent hemolysis was calculated by comparing the absorbance arising from peptide treated cells to RBCs treated with […] (0% hemolysis) or lysed with 1% Triton X-100 (100% hemolysis).
# [8] = Peptide aggregation in RPMI + 10% FBS with PBMCs (microscopy); format: physicochemical; details: overnight
# Protocol: Peptide Aggregation: Peptide aggregation was assessed qualitatively by examining samples of peptides mixed with PBMCs following overnight incubation at 37 °C and 5% CO2. All samples were prepared in RPMI media containing 10% FBS the same manner as the cytotoxicity assays described above. Visualization of aggregates was done using a Nikon Eclipse TS100 Inverted Microscope at 10× magnification.
# In aggregation studies, peptides were added to PBMCs in RPMI media containing 10% FBS and incubated overnight at 37 °C in 5% CO2.
# The peptides were also evaluated for their tendency to aggregate when added to RPMI tissue culture media containing 10% fetal bovine serum in the presence of PBMCs. Peptides were added to PBMCs in RPMI media containing 10% FBS and incubated overnight at 37 °C in 5% CO2. […] Compared to a highly aggregation prone peptide, 1018 [Haney, E. F., et al. (2017). Aggregation and its influence on the immunomodulatory activity of synthetic innate defense regulator peptides.
# As with the DJK-5 derivatives above, the AB103-D derivatives were evaluated for their tendency to aggregate when added to RPMI tissue culture media containing 10% fetal bovine serum in the presence of PBMCs. Peptides were added to PBMCs in RPMI media containing 10% FBS and incubated overnight at 37 °C in 5% CO2.
# [9] = tested on: 3-day-old oral plaque (multispecies) biofilms; assay: Oral plaque biofilm model, long-term (1-3 days) exposure, dead cell volume; format: cell-based; details: 10 μg/mL, 1 or 3 days (FIG. 10)
# [10] = tested on: 3-day-old oral plaque biofilms; assay: Oral plaque biofilm model, brief (1 minute) exposure, dead cell volume; format: cell-based; details: 10 μg/mL, 1 minute (FIG. 11)
# [11] = tested on: peripheral blood mononuclear cells (PBMCs); assay: Cytotoxicity (LDH release), PBMCs
# [12] = tested on: P. aeruginosa PAO1 planktonic cells; assay: Planktonic growth inhibition by pure AB103-D derivatives, P. aeruginosa; format: cell-based, Pseudomonas aeruginosa
# Protocol: as §3
# [13] = 200 μg/ml or highest concentration
Structure (SMILES),Activity against PAO1 biofilms compared to AB103-D [1],minimum inhibitory concentration of peptide that inhibited at least 90% of biofilm growth (MBIC90) (MRSA USA300 biofilms),MIC (P. aeruginosa PAO1),MIC (MRSA USA 300),MIC [2],MIC [3],MIC (Klebsiella pneumoniae),MIC (Streptococcus salivarius),Clinical score [4],Average cyst size compared to DJK-5 [4],Planktonic growth inhibition [5],minimum inhibitory concentration of peptide that inhibited at least 90% of biofilm growth (MBIC90) [6],"Peptide aggregation [8, 13]",also measured
"CC[C@@H](C)[C@@H](NC(=O)[C@@H](C)NC(=O)[C@@H](CCCNC(=N)N)NC(=O)[C@@H](Cc1c[nH]c2ccccc12)NC(=O)[C@@H](CCC(N)=O)NC(=O)[C@H](NC(=O)[C@@H](CCCNC(=N)N)NC(=O)[C@@H](Cc1c[nH]c2ccccc12)NC(=O)[C@H](NC(=O)[C@@H](CCCNC(=N)N)NC(=O)[C@H](NC(=O)[C@H](N)CCCNC(=N)N)C(C)C)C(C)C)C(C)C)C(N)=O [AB111-D, rvrvwrvqwrai] (H-[dR][dV][dR][dV][dW][dR][dV][dQ][dW][dR][dA][dI]-NH2)",activity superior to that of AB103-D,0.5 µM,2 µg/mL,0.8 µg/mL,0.8 µg/mL,0.8 µg/mL,0.8 µg/mL,0.8 µg/mL,< 2,smaller than those induced by DJK-5,among the most active against planktonic cells,4 µM,,
"CC[C@@H](C)[C@@H](NC(=O)[C@@H](C)NC(=O)[C@@H](CCCNC(=N)N)NC(=O)[C@@H](Cc1c[nH]c2ccccc12)NC(=O)[C@@H](CCCCN)NC(=O)[C@H](NC(=O)[C@@H](CCCNC(=N)N)NC(=O)[C@H](NC(=O)[C@H](NC(=O)[C@@H](CCCNC(=N)N)NC(=O)[C@H](NC(=O)[C@H](N)CCCNC(=N)N)C(C)C)C(C)C)[C@H](C)CC)C(C)C)C(N)=O [AB114-D, rvrvirvkwrai] (H-[dR][dV][dR][dV][dI][dR][dV][dK][dW][dR][dA][dI]-NH2)",,0.5 µM,2 µg/mL,0.8 µg/mL,0.8 µg/mL,0.4 µg/mL,0.8 µg/mL,0.8 µg/mL,< 2,smaller than those induced by DJK-5,among the most active against planktonic cells,8 µM,,Better activity vs. MRSA cf. AB103-D [7]: ~2 fold
"CC[C@@H](C)[C@@H](NC(=O)[C@@H](C)NC(=O)[C@@H](CCCNC(=N)N)NC(=O)[C@@H](Cc1c[nH]c2ccccc12)NC(=O)[C@@H](CCC(N)=O)NC(=O)[C@H](N)C(C)C)C(=O)N[C@@H](C(=O)N[C@@H](C(=O)N[C@H](CCCNC(=N)N)C(=O)N[C@@H](C(=O)N[C@@H](C(=O)N[C@H](CCCNC(=N)N)C(N)=O)[C@H](C)CC)C(C)C)C(C)C)[C@H](C)CC [AB106-D, vqwraiivrvir-NH2] (H-[dV][dQ][dW][dR][dA][dI][dI][dV][dR][dV][dI][dR]-NH2)",,,,,,,,,,,,,marginal peptide aggregation,"Hemolysis (red blood cells): only marginally toxic at the highest peptide concentration evaluated; Killing of oral plaque biofilms, long-term exposure [9]: activity comparable to peptide DJK-5; Killing of oral plaque biofilms, brief exposure [10]: comparable to or better than peptide DJK-5; Cytotoxicity (LDH) [11]: only marginally toxic at the highest peptide concentration evaluated"
"CC[C@@H](C)[C@@H](NC(=O)[C@H](NC(=O)[C@@H](CCCNC(=N)N)NC(=O)[C@@H](Cc1c[nH]c2ccccc12)NC(=O)[C@@H](CCC(N)=O)NC(=O)[C@H](NC(=O)[C@@H](CCCNC(=N)N)NC(=O)[C@H](NC(=O)[C@H](NC(=O)[C@@H](CCCNC(=N)N)NC(=O)[C@H](NC(=O)[C@H](N)CCCNC(=N)N)C(C)C)C(C)C)[C@H](C)CC)C(C)C)[C@H](C)CC)C(N)=O [AB112-D, rvrvirvqwrii] (H-[dR][dV][dR][dV][dI][dR][dV][dQ][dW][dR][dI][dI]-NH2)",activity superior to that of AB103-D,1 µM,,,,,,,,,,2 µM,strongly aggregated,"Peptide aggregation ([8]; 50 μg/ml): peptide aggregation was again observed; Planktonic growth inhibition [12]: among the most active; Biofilm growth inhibition ([6]; P. aeruginosa PAO1 (FIG. 20D)): among the most active; More active than AB103-D against PAO1 biofilms ([6]; PAO1, >95% pure peptides): up to 4 fold"
